Earlier results as cited in PMC7904743, “WIDOCK: a reactive docking protocol for virtual screening of covalent inhibitors” (Journal of Computer-Aided Molecular Design, 2021).
Where two headings read alike, the source gives them in different places.

Key:
OTUB2 = OTUB2 protein labeling; experimental actives if % labeling higher than 50%; cited from earlier work
[1] = thiol reactivity, cited from earlier work
NUDT7 = details: protein labeling at 200 μM; experimental actives if % labeling higher than 50%; cited from earlier work
[2] = natural log of average kinetic rate constant
[3] = natural log of average rate constant

SMILES: O=C(CCl)NCc1nc2ccccc2s1 [PCM-0102803, O=C(CCl)NCc1nc2ccccc2s1]
- OTUB2 % labeling (OTUB2): 37%
- ln(avg k) [1, 2]: -16.252
- ln(avg k) [1, 3]: -16.252
- NUDT7 % labeling (NUDT7): 0%

SMILES: NS(=O)(=O)c1ccc(NC(=O)CCl)cc1 [PCM-0102807, NS(=O)(=O)c1ccc(NC(=O)CCl)cc1]
- OTUB2 % labeling (OTUB2): 29%
- ln(avg k) [1, 2]: -15.463
- ln(avg k) [1, 3]: -15.463
- NUDT7 % labeling (NUDT7): 0%

SMILES: O=C(CCl)Nc1nc(-c2ccc(F)cc2)cs1 [PCM-0102809, O=C(CCl)Nc1nc(-c2ccc(F)cc2)cs1]
- OTUB2 % labeling (OTUB2): 21%
- ln(avg k) [1, 2]: -15.559
- ln(avg k) [1, 3]: -15.559
- NUDT7 % labeling (NUDT7): 37%

SMILES: C#CCN1CCN(C(=O)CCl)CC1 [PCM-0102811, C#CCN1CCN(C(=O)CCl)CC1]
- OTUB2 % labeling (OTUB2): 0%
- ln(avg k) [1, 2]: -15.973
- ln(avg k) [1, 3]: -15.973
- NUDT7 % labeling (NUDT7): 0%

SMILES: O=C(CCl)N1CCN(Cc2ccc3c(c2)CCO3)CC1 [PCM-0102814, O=C(CCl)N1CCN(Cc2ccc3c(c2)CCO3)CC1]
- OTUB2 % labeling (OTUB2): 0%
- ln(avg k) [1, 2]: -15.537
- ln(avg k) [1, 3]: -15.537
- NUDT7 % labeling (NUDT7): 0%

SMILES: CNC(=O)C1CCN(C(=O)CCl)CC1 [PCM-0102815, CNC(=O)C1CCN(C(=O)CCl)CC1]
- OTUB2 % labeling (OTUB2): 8%
- ln(avg k) [1, 2]: -15.403
- ln(avg k) [1, 3]: -15.403
- NUDT7 % labeling (NUDT7): 0%

SMILES: CC(NC(=O)CCl)c1ccc2c(c1)CC(=O)N2 (centres unmarked) [PCM-0102816, CC(NC(=O)CCl)c1ccc2c(c1)CC(=O)N2]
- OTUB2 % labeling (OTUB2): 29%
- ln(avg k) [1, 2]: -16.367
- ln(avg k) [1, 3]: -16.367
- NUDT7 % labeling (NUDT7): 22%

SMILES: CC(C)(C)NC(=O)CNC(=O)CCl [PCM-0102817, CC(C)(C)NC(=O)CNC(=O)CCl]
- OTUB2 % labeling (OTUB2): 41%
- ln(avg k) [1, 2]: -16.378
- ln(avg k) [1, 3]: -16.378
- NUDT7 % labeling (NUDT7): 0%

SMILES: O=C(CCl)N1CCN(Cc2ccc(Cl)cc2)CC1 [PCM-0102818, O=C(CCl)N1CCN(Cc2ccc(Cl)cc2)CC1]
- OTUB2 % labeling (OTUB2): 17%
- ln(avg k) [1, 2]: -15.454
- ln(avg k) [1, 3]: -15.454
- NUDT7 % labeling (NUDT7): 0%

SMILES: Cc1cccc(CNC(=O)CCl)c1 [PCM-0102821, Cc1cccc(CNC(=O)CCl)c1]
- OTUB2 % labeling (OTUB2): 86%
- ln(avg k) [1, 2]: -16.579
- ln(avg k) [1, 3]: -16.579
- NUDT7 % labeling (NUDT7): 0%

SMILES: CC1CCc2ccccc2N1C(=O)CCl (centres unmarked) [PCM-0102822, CC1CCc2ccccc2N1C(=O)CCl]
- OTUB2 % labeling (OTUB2): 0%
- ln(avg k) [1, 2]: -16.310
- ln(avg k) [1, 3]: -16.310
- NUDT7 % labeling (NUDT7): 0%

SMILES: O=C(CCl)N1CCC2(CC1)OCCO2 [PCM-0102823, O=C(CCl)N1CCC2(CC1)OCCO2]
- OTUB2 % labeling (OTUB2): 0%
- ln(avg k) [1, 2]: -16.068
- ln(avg k) [1, 3]: -16.068
- NUDT7 % labeling (NUDT7): 0%

SMILES: O=C(CCl)N1CCCC2CCCCC21 (centres unmarked) [PCM-0102826, O=C(CCl)N1CCCC2CCCCC21]
- OTUB2 % labeling (OTUB2): 0%
- ln(avg k) [1, 2]: -16.060
- ln(avg k) [1, 3]: -16.060
- NUDT7 % labeling (NUDT7): 7%

SMILES: COC(=O)C1(NC(=O)CCl)CCC(C)CC1 (centres unmarked) [PCM-0102827, COC(=O)C1(NC(=O)CCl)CCC(C)CC1]
- OTUB2 % labeling (OTUB2): 0%
- ln(avg k) [1, 2]: -16.743
- ln(avg k) [1, 3]: -16.743
- NUDT7 % labeling (NUDT7): 0%

SMILES: CCC1CCCCN1C(=O)CCl (centres unmarked) [PCM-0102828, CCC1CCCCN1C(=O)CCl]
- OTUB2 % labeling (OTUB2): 0%
- ln(avg k) [1, 2]: -16.282
- ln(avg k) [1, 3]: -16.282
- NUDT7 % labeling (NUDT7): 4%

SMILES: Cc1ccccc1CC(=O)NNC(=O)CCl [PCM-0102829, Cc1ccccc1CC(=O)NNC(=O)CCl]
- OTUB2 % labeling (OTUB2): 30%
- ln(avg k) [1, 2]: -17.272
- ln(avg k) [1, 3]: -17.272
- NUDT7 % labeling (NUDT7): 0%

SMILES: CC1CN(C(=O)CCl)CCO1 (centres unmarked) [PCM-0102830, CC1CN(C(=O)CCl)CCO1]
- OTUB2 % labeling (OTUB2): 0%
- ln(avg k) [1, 2]: -16.218
- ln(avg k) [1, 3]: -16.218
- NUDT7 % labeling (NUDT7): 0%

SMILES: CC1CCN(C(=O)CCl)C2CCCCC12 (centres unmarked) [PCM-0102831, CC1CCN(C(=O)CCl)C2CCCCC12]
- OTUB2 % labeling (OTUB2): 0%
- ln(avg k) [1, 2]: -15.612
- ln(avg k) [1, 3]: -15.612
- NUDT7 % labeling (NUDT7): 37%

SMILES: O=C(CCl)N(C1CC1)C1CCS(=O)(=O)C1 (centres unmarked) [PCM-0102832, O=C(CCl)N(C1CC1)C1CCS(=O)(=O)C1]
- OTUB2 % labeling (OTUB2): 43%
- ln(avg k) [1, 2]: -16.200
- ln(avg k) [1, 3]: -16.200
- NUDT7 % labeling (NUDT7): 0%

SMILES: CC(C)(C)N(Cc1cccc(F)c1)C(=O)CCl [PCM-0102833, CC(C)(C)N(Cc1cccc(F)c1)C(=O)CCl]
- OTUB2 % labeling (OTUB2): 0%
- ln(avg k) [1, 2]: -16.964
- ln(avg k) [1, 3]: -16.964
- NUDT7 % labeling (NUDT7): 0%

SMILES: O=C(CCl)N1CCN(S(=O)(=O)c2ccc3ccccc3c2)CC1 [PCM-0102836, O=C(CCl)N1CCN(S(=O)(=O)c2ccc3ccccc3c2)CC1]
- OTUB2 % labeling (OTUB2): 0%
- ln(avg k) [1, 2]: -15.169
- ln(avg k) [1, 3]: -15.169
- NUDT7 % labeling (NUDT7): 0%

SMILES: O=C(CCl)N1CCN(S(=O)(=O)c2ccccc2Cl)CC1 [PCM-0102837, O=C(CCl)N1CCN(S(=O)(=O)c2ccccc2Cl)CC1]
- OTUB2 % labeling (OTUB2): 0%
- ln(avg k) [1, 2]: -15.224
- ln(avg k) [1, 3]: -15.224
- NUDT7 % labeling (NUDT7): 18%

SMILES: CC(=O)c1sc(NC(=O)CCl)nc1C [PCM-0102838, CC(=O)c1sc(NC(=O)CCl)nc1C]
- OTUB2 % labeling (OTUB2): 0%
- ln(avg k) [1, 2]: -16.064
- ln(avg k) [1, 3]: -16.064
- NUDT7 % labeling (NUDT7): 12%

SMILES: COC(=O)C1Cc2ccccc2CN1C(=O)CCl (centres unmarked) [PCM-0102841, COC(=O)C1Cc2ccccc2CN1C(=O)CCl]
- OTUB2 % labeling (OTUB2): 41%
- ln(avg k) [1, 2]: -14.128
- ln(avg k) [1, 3]: -14.128
- NUDT7 % labeling (NUDT7): 19%

SMILES: O=C(CCl)Nc1ccc([N+](=O)[O-])cc1Br [PCM-0102848, O=C(CCl)Nc1ccc([N+](=O)[O-])cc1Br]
- OTUB2 % labeling (OTUB2): 0%
- ln(avg k) [1, 2]: -16.062
- ln(avg k) [1, 3]: -16.062
- NUDT7 % labeling (NUDT7): 24%

SMILES: CC(C)(C)CCNC(=O)CCl [PCM-0102853, CC(C)(C)CCNC(=O)CCl]
- OTUB2 % labeling (OTUB2): 0%
- ln(avg k) [1, 2]: -17.028
- ln(avg k) [1, 3]: -17.028
- NUDT7 % labeling (NUDT7): 0%

SMILES: N#CC1(NC(=O)CCl)CCC1 [PCM-0102854, N#CC1(NC(=O)CCl)CCC1]
- OTUB2 % labeling (OTUB2): 0%
- ln(avg k) [1, 2]: -16.080
- ln(avg k) [1, 3]: -16.080
- NUDT7 % labeling (NUDT7): 9%

SMILES: CC(C)(C)C(=O)NNC(=O)CCl [PCM-0102855, CC(C)(C)C(=O)NNC(=O)CCl]
- OTUB2 % labeling (OTUB2): 0%
- ln(avg k) [1, 2]: -17.593
- ln(avg k) [1, 3]: -17.593
- NUDT7 % labeling (NUDT7): 7%

SMILES: N#Cc1cccc(C(=O)NNC(=O)CCl)c1 [PCM-0102857, N#Cc1cccc(C(=O)NNC(=O)CCl)c1]
- OTUB2 % labeling (OTUB2): 41%
- ln(avg k) [1, 2]: -16.900
- ln(avg k) [1, 3]: -16.900
- NUDT7 % labeling (NUDT7): 0%

SMILES: Cc1ccc(S(C)(=O)=O)cc1NC(=O)CCl [PCM-0102858, Cc1ccc(S(C)(=O)=O)cc1NC(=O)CCl]
- OTUB2 % labeling (OTUB2): 0%
- ln(avg k) [1, 2]: -16.253
- ln(avg k) [1, 3]: -16.253
- NUDT7 % labeling (NUDT7): 0%

SMILES: CCOC(=O)N1CCN(C(=O)CCl)CC1 [PCM-0102861, CCOC(=O)N1CCN(C(=O)CCl)CC1]
- OTUB2 % labeling (OTUB2): 0%
- ln(avg k) [1, 2]: -17.162
- ln(avg k) [1, 3]: -17.162
- NUDT7 % labeling (NUDT7): 0%

SMILES: O=C(CCl)NC1CCCC(C(F)(F)F)C1 (centres unmarked) [PCM-0102862, O=C(CCl)NC1CCCC(C(F)(F)F)C1]
- OTUB2 % labeling (OTUB2): 14%
- ln(avg k) [1, 2]: -16.578
- ln(avg k) [1, 3]: -16.578
- NUDT7 % labeling (NUDT7): 0%

SMILES: CN(Cc1ccsc1)C(=O)CCl [PCM-0102865, CN(Cc1ccsc1)C(=O)CCl]
- OTUB2 % labeling (OTUB2): 0%
- ln(avg k) [1, 2]: -16.224
- ln(avg k) [1, 3]: -16.224
- NUDT7 % labeling (NUDT7): 9%

SMILES: O=C(CCl)Nc1ccc2[nH]c(=O)[nH]c2c1 [PCM-0102866, O=C(CCl)Nc1ccc2[nH]c(=O)[nH]c2c1]
- OTUB2 % labeling (OTUB2): 30%
- ln(avg k) [1, 2]: -15.702
- ln(avg k) [1, 3]: -15.702
- NUDT7 % labeling (NUDT7): 0%

SMILES: CC1CCCN(C(=O)CCl)C1 (centres unmarked) [PCM-0102867, CC1CCCN(C(=O)CCl)C1]
- OTUB2 % labeling (OTUB2): 0%
- ln(avg k) [1, 2]: -16.989
- ln(avg k) [1, 3]: -16.989
- NUDT7 % labeling (NUDT7): 0%
